Data set [1] has as its target Acetylcholine-binding protein (Lymnaea stagnalis, UniProt P58154). The data set is described as follows: Displacement of [3H]epibatidine from Lymnaea stagnalis acetylcholine-binding protein incubated for 60 mins followed by 3 hrs incubation in dark condition by microbeta counting analysis. In general terms: Loss of bound radioactivity is the signal in a displacement assay; it reports binding, not function.

In data set [2] the target is T1, Neuronal acetylcholine receptor subunit alpha-7 (Homo sapiens, UniProt P36544). Briefly: Partial agonist activity at human alpha7 nAChR at 100 uM at -60 mV holding potential incubated for 1 sec followed by 60 secs compound washout relative to acetylcholine.
T1 sequence (P36544 whole entry): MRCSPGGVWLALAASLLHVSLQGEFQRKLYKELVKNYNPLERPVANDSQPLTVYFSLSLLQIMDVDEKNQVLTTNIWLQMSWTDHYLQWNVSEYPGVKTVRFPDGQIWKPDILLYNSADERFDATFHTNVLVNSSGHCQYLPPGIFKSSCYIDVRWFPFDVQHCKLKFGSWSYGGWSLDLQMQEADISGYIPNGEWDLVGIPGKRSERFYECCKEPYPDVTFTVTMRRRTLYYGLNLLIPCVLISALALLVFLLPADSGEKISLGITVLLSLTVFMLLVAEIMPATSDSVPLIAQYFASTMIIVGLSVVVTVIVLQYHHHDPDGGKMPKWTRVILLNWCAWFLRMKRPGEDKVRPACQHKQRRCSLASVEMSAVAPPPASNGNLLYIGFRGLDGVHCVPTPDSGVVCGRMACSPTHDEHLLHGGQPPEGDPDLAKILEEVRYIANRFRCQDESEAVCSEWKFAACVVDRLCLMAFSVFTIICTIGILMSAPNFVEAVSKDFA
Data set [3] deals with Acetylcholine-binding protein (Lymnaea stagnalis) (UniProt P58154). The data set is described as follows: Displacement of [3H]epibatidine from Lymnaea stagnalis acetylcholine-binding protein at 100 nM incubated for 60 mins followed by 3 hrs incubation in dark condition by microbeta counting analysis relative to control.
Sequence of Acetylcholine-binding protein (Lymnaea stagnalis) (P58154 whole entry): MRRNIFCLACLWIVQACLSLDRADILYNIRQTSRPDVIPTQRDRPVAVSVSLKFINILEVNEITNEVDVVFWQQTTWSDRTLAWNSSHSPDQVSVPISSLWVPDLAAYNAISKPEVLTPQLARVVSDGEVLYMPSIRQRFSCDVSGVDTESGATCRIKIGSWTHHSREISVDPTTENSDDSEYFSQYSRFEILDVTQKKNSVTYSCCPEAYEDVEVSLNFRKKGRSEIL
Data set [4] addresses T1, Neuronal acetylcholine receptor subunit alpha-7. The data set is described as follows: Antagonist activity at human alpha7 nAChR assessed as inhibition of acetylcholine-induced response at 100 uM at -60 mV holding potential incubated for 30 secs followed by acetylcholine addition and subsequent compound washout for 30 secs relative to acetylcholine.
For data set [5] the target is unchanged. The data set is described as follows: Antagonist activity at human alpha7 nAChR assessed as inhibition of acetylcholine-induced response at 1 uM at -60 mV holding potential incubated for 30 secs followed by acetylcholine addition and subsequent compound washout for 30 secs relative to acetylcholine.
Data set [6] can be described thus: Half life in ICR mouse at 10 mg/kg, po. The format is ADME, organism-based. The note with it: in vivo.
Data set [7] has as its target T1, Neuronal acetylcholine receptor subunit alpha-7. Briefly: Partial agonist activity at human alpha7 nAChR at -60 mV holding potential incubated for 1 sec followed by 60 secs compound washout.
The nature of data set [8]: AUC (0 to infinity) in ICR mouse at 10 mg/kg, po. The data set is classed as ADME, organism-based. On the set-up: dose 10 mg/kg, time infinity, route oral. Particulars: in vivo.
Data set [9] can be described thus: Apparent volume of distribution in ICR mouse at 2 mg/kg, iv. The format is ADME, organism-based. The note with it: in vivo, read-out: Vz.
A short description of data set [10]: Half life in ICR mouse at 2 mg/kg, iv. The format is ADME, organism-based. Particulars: in vivo.
Data set [11] is described as follows: Ratio of drug level in blood to plasma in ICR mouse at 2 mg/kg, iv after 4 hrs. The data set is classed as ADME, organism-based. Particulars: blood and plasma.
Data set [12] is described as follows: Cmax in ICR mouse at 2 mg/kg, iv. The note with it: in vivo. The data set is classed as ADME, organism-based. Also noted: dose 2 mg/kg, route intravenous.
A short description of data set [13]: Ratio of drug level in blood to plasma in ICR mouse at 10 mg/kg, po after 4 hrs. Particulars: blood and plasma. The format is ADME, organism-based.
A short description of data set [14]: Clearance in ICR mouse at 2 mg/kg, iv. The note with it: in vivo. The format is ADME, organism-based.
The nature of data set [15]: Oral bioavailability in ICR mouse at 10 mg/kg. Particulars: in vivo. The data set is classed as ADME, organism-based.
Data set [16] can be described thus: Tmax in ICR mouse at 10 mg/kg, po. The format is ADME, organism-based. Particulars: in vivo.
Data set [17] in a line: Cmax in ICR mouse at 10 mg/kg, po. The format is ADME, organism-based. Also noted: dose 10 mg/kg, route oral. Particulars: in vivo.
A short description of data set [18]: Tmax in ICR mouse at 2 mg/kg, iv. The format is ADME, organism-based. The note with it: in vivo.
The target in data set [19] is Neuronal acetylcholine receptor; alpha4/beta2 (Homo sapiens) (UniProt P17787+P43681). The data set is described as follows: Agonist activity at alpha4beta2 nAChR (unknown origin) at -60 mV holding potential incubated for 1 sec followed by 60 secs compound washout. The format is protein-complex assay.
A short description of data set [20]: AUC (0 to infinity) in ICR mouse at 2 mg/kg, iv. The format is ADME, organism-based. On the set-up: dose 2 mg/kg, route intravenous, time infinity. Particulars: in vivo.
Data set [21] addresses T1, Neuronal acetylcholine receptor subunit alpha-7. Briefly: Partial agonist activity at human alpha7 nAChR expressed in Xenopus laevis oocytes by voltage clamp electrophysiological method. The format is cell-based.
Data set [22] has the same target. The data set is described as follows: Partial agonist activity at human alpha7 nAChR expressed in Xenopus laevis oocytes at holding potential of -90 mV by patch clamp electrophysiological method. The format is cell-based. For orientation: In patch-clamp work, channel activity is measured electrically.

Experimental findings from ChEMBL document CHEMBL4382203, “Discovery, cocrystallization and biological evaluation of novel piperidine derivatives as high affinity Ls-AChBP ligands possessing α7 nAChR activities” (Eur J Med Chem, 2018) are described below.

Calls of active or inactive are those of the source. The rule behind the calls is not given here.

Broadly, the Ki is the dissociation constant of the complex between target and ligand, obtained from inhibition or displacement. The inhibition is the relative decrease from the control value, in per cent. One may read the half-life as the time in which the quantity being followed falls by half. Read a low half-life as fast loss. By EC50 is commonly meant the midpoint of the concentration-response curve. A higher EC50 goes with weaker potency. What is called AUC(0-inf) is total exposure, with the tail of the curve extrapolated. Lower therefore signals less exposure. One may read the Cmax as the highest concentration seen after dosing. As usually defined, the clearance is the volume of plasma or blood freed of the substance per unit of time. Read a low clearance as a low capacity for elimination. As usually defined, the Emax is the maximal effect, on the per cent scale that the assay sets. In general, bioavailability refers to dose-corrected exposure relative to a reference, in per cent. The term Tmax denotes the time from dosing to the highest level.

Sequence of Acetylcholine-binding protein (P58154 whole entry): as above

Consider `OCCCC#Cc1cncc(OCC2(Cc3cccc(Cl)c3)CCCNC2)c1` (centres undefined), for which, in [1], the inhibition constant Ki was determined as 12.5 nM.

In data set [1], `Clc1ccccc1CC1(COc2cccnc2)CCCNC1` (centres undefined) showed a Ki of 13 nM. Besides, the Efficacy in [2] is 16.8%.

As to `FC(F)(F)c1ccc(CC2(COc3cccnc3)CCCNC2)cc1` (centres undefined), in data set [1], the Ki is 11.9 nM. The compound also showed an Efficacy in [2] of 17.5%.

In data set [1], `Clc1ccc(CC2(COc3cccnc3)CCCNC2)cc1Cl` (centres undefined) registered a Ki of 2.27 nM.

Take `Clc1cccc(CC2(COc3cncc(-c4ccccc4)c3)CCCNC2)c1` (centres undefined): the inhibition constant Ki in data set [1] is > 67.7 nM. Further, the inhibition in data set [3] was < 50%.

Take `Clc1cccc(CC2(COc3ccccn3)CCCNC2)c1` (centres undefined): the inhibitory constant (Ki) in [1] was > 67.7 nM. Also, the inhibition in data set [3] is < 50%.

Regarding `Cc1ccc(CC2(COc3cccnc3)CCCNC2)cc1` (centres undefined), in [1], the Ki was 16.5 nM. The compound further showed an Efficacy in [2] of 13%.

For the compound `c1ccc(-c2ccc(CC3(COc4cccnc4)CCCNC3)cc2)cc1` (centres undefined), the affinity in data set [1] corresponds to a Ki of 11.7 nM. In addition, the figures for the inhibition in [4] and in [5] were 96.5% and 53.4%, respectively. In data set [2], this compound showed an Efficacy of 7.9%.

As to `Clc1ccc(C[C@@]2(COc3cccnc3)CCCNC2)cc1Cl`, the half-life in data set [6] is 102 min; in data set [10], 72 min. The compound further had an EC50 in data set [7] of 20400 nM. In data set [1], this compound registered a Ki of 0.86 nM. In addition, the results for the AUC(0-inf) in data set [8] and in data set [20] were 1.9 µM·h and 0.7 µM·h, respectively. Further, in data set [9], the Vd was 13.3 L/kg. Moreover, the blood plasma ratio at 4 h in data set [11] is 8.8; in [13], 5.1. Also, the Cmax in data set [12] stood at 1000 nM; in data set [17], 1100 nM. In addition, the clearance in data set [14] stood at 129 mL/min/kg. This compound registered an Efficacy in [2] of 33.3%. For the same compound, in data set [2], the Emax came to 36.1%. This compound registered a bioavailability in [15] of 51.2%. Moreover, the Tmax in data set [16] was 30 min; in data set [18], 4.8 min. Further, in data set [19], the outcome was inactive.

`Clc1cccc(CC2(COc3ccc(Br)nc3)CCCNC2)c1` (centres undefined) yielded an inhibition constant Ki in data set [1] of 11.4 nM. That is a double-digit nanomolar value.

As to `Clc1cccc(CC2(COc3cncnc3)CCCNC2)c1` (centres undefined), the Ki in [1] was 5.22 nM.

`Clc1ccc(C[C@]2(COc3cccnc3)CCCNC2)cc1Cl`: the Ki in data set [1] amounted to 26.2 nM. The inhibition stood at 90.8% in data set [4] and 27.2% in data set [5]. This compound registered an Efficacy in data set [2] of 5.5%. For the same compound, the result in data set [19] was inactive.

Consider `OCCCCC#Cc1cncc(OCC2(Cc3cccc(Cl)c3)CCCNC2)c1` (centres undefined), for which affinity in [1] was put at a Ki of 3.47 nM. For the same compound, the inhibition was found to be 97.3% in data set [4] and 12.8% in data set [5]. In data set [2], this compound showed an Efficacy of 4.5%. Further, in [19], the outcome was inactive.

`Cc1cccc(CC2(COc3cccnc3)CCCNC2)c1` (centres undefined) gave a Ki in data set [1] of 12.4 nM. The Efficacy in data set [2] is 14.8%.

`Clc1cccc(CC2(COc3cccnc3)CCCNC2)c1Cl` (centres undefined) returned a Ki in data set [1] of 6.02 nM. For the same compound, in data set [2], the Efficacy is 19.5%.

In the case of `O=C(N[C@H]1CN2CCC1CC2)c1cc2cccc(Cl)c2s1` [ENCENICLINE], a half-maximal response in data set [21] (EC50) required 390 nM.

With `OCCCC#Cc1ccc(OCC2(Cc3cccc(Cl)c3)CCCNC2)cn1` (centres undefined), the Ki in [1] was > 67.7 nM. Moreover, the inhibition in [3] is < 50%.

`FC(F)(F)c1ccccc1CC1(COc2cccnc2)CCCNC1` (centres undefined) returned a Ki in data set [1] of 17.2 nM. This compound also showed an Efficacy in [2] of 13.5%.

Consider `Clc1cccc(CC2(COc3ccc4c(c3)[nH]c3ccccc34)CCCNC2)c1` (centres undefined), for which the Ki in data set [1] was > 67.7 nM. Also, the inhibition in data set [3] was < 50%.

`Clc1cccc(CC2(COc3ccncc3)CCCNC2)c1` (centres undefined) gave a Ki in data set [1] of 16.5 nM.

As for `Clc1ccc(CC2(COc3cccnc3)CCNCC2)cc1Cl`, the figures for the inhibition in data set [4] and in data set [5] were 94% and 27.2%, respectively. In data set [2], the Efficacy is 3.1%. The outcome in [19] was inactive.

`OCCCCC#Cc1ccc(OCC2(Cc3cccc(Cl)c3)CCCNC2)cn1` (centres undefined) returned a Ki in data set [1] of 16 nM. Also, the Efficacy in data set [2] came out at 8.5%.

As for `Clc1ccc(CC2(COc3cccnc3)CCCNC2)cc1` (centres undefined), the Ki in data set [1] stood at 9.77 nM. In addition, the Efficacy in data set [2] was 18.2%.

For the compound `Clc1cccc(CC2(COc3cccnc3)CCCNC2)c1` (centres undefined), the affinity in data set [1] corresponds to a Ki of 5.3 nM. The Efficacy in data set [2] is 33.8%.

In turn, `Cc1ccc(-c2ccc(O[C@H]3CN4CCC3CC4)cn2)cc1` registered an EC50 in data set [22] of 39 nM.

In data set [1], `Clc1cccc(CC2(COc3ccc(Cl)nc3)CCCNC2)c1` (centres undefined) had a Ki of 3.39 nM. Further, in data set [2], the Efficacy came out at 4.4%.

`Cc1ccccc1CC1(COc2cccnc2)CCCNC1` (centres undefined) returned a Ki in [1] of 18.8 nM. Further, the Efficacy in data set [2] came out at 12.8%.

`OCCC#Cc1cncc(OCC2(Cc3cccc(Cl)c3)CCCNC2)c1` (centres undefined) yielded a Ki in data set [1] of 5.57 nM.

Take `OCCC#Cc1ccc(OCC2(Cc3cccc(Cl)c3)CCCNC2)cn1` (centres undefined): in data set [1], the Ki was 29 nM. This Ki lies about 5.2-fold higher than the previous one.

In [1], `FC(F)(F)c1cccc(CC2(COc3cccnc3)CCCNC2)c1` (centres undefined) showed a Ki of 5.93 nM. Also, in data set [2], the Efficacy was found to be 28%. For the same compound, the outcome in data set [19] was inactive.

`Clc1cccc(CC2(COc3cncc(Br)c3)CCCNC2)c1` (centres undefined) gave a Ki in data set [1] of 22.2 nM.
